Data published in US7446225B2, “Pentafluorosulfanylphenyl-substituted benzoylguanidines, method for the production thereof, their use as a medicament or diagnostic agent, and a medicament containing these compounds” (Sanofi-aventis Deutschland GmbH, priority 2004, dated 2008).

Biological target: T1, human NHE-1 (Homo sapiens, UniProt P19634)
T1 construct: expressed in transfected cells; host or cells: LAP-1 (NHE-deficient parental cell line), stably transfected, G418 selection
Assay: FLIPR assay of pHi recovery for NHE-1 inhibition
Assay type: cell-based
Settings: transfected LAP-1 cell line expressing human NHE-1, BCECF pHi recovery, read-out: NHE1 inhibition IC50
Protocol: The inhibitory concentration IC50 for NHE-1 inhibition was determined as follows:
IC50 for NHE-1 inhibition were determined in a FLIPR assay by measurement of the recovery in pHi in transfected cell lines which express human NHE-1.
The assay was carried out in an FLIPR (fluorescent imaging plate reader) with black-walled 96-well microtiter plates with clear bases.
The growth medium for the transfected cells (Iscove+10% fetal calf serum) additionally contained G418 as selection antibiotic in order to ensure the presence of the transfected sequences.
The actual assay started with the removal of the growth medium and addition of 100 μl of loading buffer per well (5 μM BCECF-AM [2′,7′-bis(carboxyethyl)-5-(and -6-)carboxyfluorescein, acetoxymethyl ester] in 20 mM NH4Cl, 115 mM choline chloride, 1 mM MgCl2, 1 mM CaCl2, 5 mM KCl, 20 mM HEPES, 5 mM glucose; pH 7.4 [adjusted with KOH]). The cells were then incubated at 37° C. for 20 minutes. This incubation led to loading of the cells with the fluorescent dye whose fluorescence intensity depends on pHi, and with NH4Cl which makes the cells slightly alkaline. The nonfluorescent dye precursor BCECF-AM is, as ester, membrane-permeable. The actual dye BCECF is not membrane-permeable but is liberated inside cells by esterases. […]

T1 sequence (P19634 whole entry): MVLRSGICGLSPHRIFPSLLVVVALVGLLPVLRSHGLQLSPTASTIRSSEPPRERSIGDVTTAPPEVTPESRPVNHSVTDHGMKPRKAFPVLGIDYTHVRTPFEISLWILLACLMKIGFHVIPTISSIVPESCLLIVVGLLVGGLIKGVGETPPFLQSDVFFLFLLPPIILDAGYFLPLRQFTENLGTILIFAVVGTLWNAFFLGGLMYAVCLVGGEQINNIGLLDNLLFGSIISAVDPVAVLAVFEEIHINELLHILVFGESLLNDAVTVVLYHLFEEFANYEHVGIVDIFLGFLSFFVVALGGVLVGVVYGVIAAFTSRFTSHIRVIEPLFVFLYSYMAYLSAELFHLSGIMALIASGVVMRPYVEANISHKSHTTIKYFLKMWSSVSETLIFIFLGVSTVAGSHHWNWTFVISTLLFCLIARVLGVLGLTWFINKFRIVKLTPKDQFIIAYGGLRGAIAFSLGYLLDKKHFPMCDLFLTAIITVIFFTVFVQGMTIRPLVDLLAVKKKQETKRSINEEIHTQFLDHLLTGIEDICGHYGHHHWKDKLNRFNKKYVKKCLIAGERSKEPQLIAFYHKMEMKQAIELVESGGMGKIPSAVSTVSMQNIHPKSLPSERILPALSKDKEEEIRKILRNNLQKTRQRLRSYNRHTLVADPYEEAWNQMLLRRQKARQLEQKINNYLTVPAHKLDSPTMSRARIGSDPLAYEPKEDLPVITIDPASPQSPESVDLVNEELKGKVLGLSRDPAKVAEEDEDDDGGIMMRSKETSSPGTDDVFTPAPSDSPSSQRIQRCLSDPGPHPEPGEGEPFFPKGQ

IC50: 33 nM
SMILES: Cc1cc(Oc2ccc(S(C)(=O)=O)c(S(F)(F)(F)(F)F)c2)c(S(C)(=O)=O)cc1C(=O)N=C(N)N [Example 1, N-[5-methanesulfonyl-4-(4-methanesulfonyl-3-pentafluorosulfanyl-phenoxy)-2-methylbenzoyl]guanidine]
